In patent US9180082B2, “Biotin-conjugated hexapeptide-2 derivative and use thereof” (INCOSPHARM CORPORATION, priority 2012, dated 2015):
Where a SMILES comes first, the peptide text is derived from it. [ ]: non-standard residue; d: D form. The star is where a group is joined. ξ: configuration not given here. Biotin = O=C1N[C@H]2[C@H](CS[C@H]2CCCCC(=O)*)N1; ξW = NC(Cc1c[nH]c2ccccc12)C(=O)O; ξH = NC(Cc1c[nH]cn1)C(=O)O; ξF = NC(Cc1ccccc1)C(=O)O; ξK = NCCCCC(N)C(=O)O; ξA = CC(N)C(=O)O

Legend:
[1] = test system: type 1 collagen biosynthesis in fibroblasts; assay: Type 1 collagen biosynthesis-promoting ability, ELISA of fibroblast culture supernatants; type: cell-based; settings: supernatants of human dermal fibroblasts; dilutions of 200 uM, 20 uM and 2 uM, each 100 ul added to 100 ul medium; incubation 48 hours; FIG. 2
Protocol: The type 1 collagen produced was measured by ELISA assay to examine the effect of promoting collagen biosynthesis, and a control group with no sample added was considered as 100% to calculate the relative type 1 collagen production ability.
Thereafter, fibroblast culture supernatants described in Example 2 were treated to the 96-well plate coated with type 1 collagen antibodies, and reacted at room temperature for 2 hours. […] Reaction was stopped using 2 N hydrochloric acid, and absorbance was measured at 450 nm.

[2] = test system: Human normal fibroblasts (Human Dermal Fibroblast neonatal); assay: Cytotoxicity test by MTT assay; type: cell-based; settings: dilutions of 200 uM, 20 uM and 2 uM, each 100 ul added to 100 ul medium, incubation 48 hours, FIG. 1
Protocol: In order to examine cytotoxicity of the biotin-conjugated hexapeptide-2 peptide synthesized in Example 1, the following experiment was performed. Cytotoxicity was examined by MTT assay, and a control group with no sample added was considered as 100% to calculate relative cytotoxicity. The detailed experimental method is as follows. Human normal fibroblasts (Human Dermal Fibroblast neonatal) were seeded in a 96-well plate for cell culture at a density of 3,000 cells per well, and cultured in 10% FBS (Fetal bovine serum)-containing DMEM (Dulbecco's Modified Eagle Media, Gibco BRL) in a 37° C., 5% CO2 incubator for 24 hours. Each test material was dissolved in water at a concentration of 10 mM to prepare concentrates, and the concentrates were diluted with 0.5% FBS-containing DMEM at a concentration of 200 uM, 20 uM, and 2 uM. Then, each 100 ul of the diluted solutions was added to each well previously containing 100 ul of the medium, followed by incubation for 48 hours. After completing the cultivation, the supernatants were used to determine the amount of type 1 collagen produced (Example 3), and the cells were used to determine cytotoxicity. […] Thereafter, the supernatant was carefully removed, and MTT formazan precipitates in the cells were dissolved in 100 ul of DMSO to determine absorbance at OD570 using an ELISA reader.

Row | Structure (SMILES) | type 1 collagen biosynthesis (ELISA, relative to control group with no sample added = 100%) [1] | cytotoxicity (MTT assay, relative to control group with no sample added = 100%) [2]
1 | CC(NC(=O)C(Cc1c[nH]c2ccccc12)NC(=O)C(Cc1c[nH]cn1)NC(=O)CCCC[C@@H]1SC[C@@H]2NC(=O)N[C@@H]21)C(=O)NC(Cc1c[nH]c2ccccc12)C(=O)NC(Cc1ccccc1)C(=O)NC(CCCCN)C(N)=O (stereo partly drawn) [biotin-conjugated hexapeptide-2] (Biotin-[ξH][ξW][ξA][ξW][ξF][ξK]-NH2) | significant increase | 
2 | O=C(O)CCCC[C@@H]1SC[C@@H]2NC(=O)N[C@@H]21 [biotin] | no increase | 
3 | C[C@H](NC(=O)[C@@H](Cc1c[nH]c2ccccc12)NC(=O)[C@@H](N)Cc1c[nH]cn1)C(=O)N[C@@H](Cc1c[nH]c2ccccc12)C(=O)N[C@H](Cc1ccccc1)C(=O)N[C@@H](CCCCN)C(N)=O [hexapeptide-2, His-D-Trp-Ala-Trp-D-Phe-Lys-NH2] (H-H[dW]AW[dF]K-NH2) |  | no cytotoxicity
